Test results published in US20070093520A1, “Method of treatment of diarrhea-predominant irritable bowel syndrome in a subject” (priority 2005, published 2007).

Tested on: diarrhea-predominant IBS subjects
Assay type: in vivo, human
Conditions: Cilansetron 2 mg, N=1454
Procedure: The study was performed in approximately 150 study centers. Approximately 1600 eligible subjects were to be given cilansetron 2 mg TID. At Visit 1, pre-treatment assessments were conducted. […] Subjects were to return to the study site one month later for Visit 3 (Day 31) for their first interim assessment. […] All subjects who discontinued from the study were to have the same post-study assessments required at Visit 7 performed at their early termination visit. […]
Stool specimens were analyzed at every visit for occult blood. An independent GERB had been established to provide advice on GI AEs during the course of the study.
Adverse events were assessed at Baseline, at each clinic visit, and at the end of the study (Month 12 or the early termination visit). All AEs, which occurred during the study were followed up in accordance with good medical practice until resolved or judged no longer clinically significant, or if a condition was chronic, until fully characterized. Adverse events could occur in the specified follow-up period and, regardless of the interval since the last administration of the study medication, were treated in the same manner as an AE which occurred during the treatment with study medication. Each AE was evaluated for duration, severity, seriousness, and causal relationship to the investigational drug. The action taken and the outcome were also recorded.
Specifically, subjects who were lost to follow-up and had no post-Baseline contact with the site were excluded from the Safety population. The subjects who discontinued from the study due to lost to follow-up were identified based on the information collected on the study termination CRF page.
After the pretreatment assessment at Visit 1 (Days […] to −3), subjects were to return to the study site for a Baseline assessment and start the treatment at Visit 2 (Day 1).
For the by time-interval analyses of disposition, prevalence of AEs, and of markedly abnormal and predefined changes in laboratory values, vital signs, and ECGs, the following interval windows were used:
Adverse events that were already present prior to the first dose of cilansetron study medication but increased in severity afterwards were considered as treatment-emergent.
The 5% cutoff point was based on the incidence within higher level terms.
Subjects were counted at most once for each primary system organ class and preferred term. Serious AEs that resolved prior to receiving study medication or occurred more than 30 days after the last dose of study medication were not included in the incidence tables. A listing of all SAEs is presented; SAEs with onset prior to receiving study medication or more than 30 days after discontinuation of study medication were flagged. The listing presents lower level term and preferred term of the SAE, severity, action taken, outcome, and relationship of the SAE, start and stop date of the SAE, study day of onset of the SAE, age, race, and sex.

## Cc1nccn1C[C@H]1CCc2c(c3cccc4c3n2CCC4)C1=O [cilansetron, (R)-(−)-4,5,6,8,9,10-hexahydro-10-[(2-methyl-1H-imidazol-1-yl)methyl]-11H-pyrido-[3,2,1-jk]-carbazol-11-one]
  TEAE incidence: Intestinal Haemorrhages: 22 (2%) n (%)
  TEAE incidence: Intestinal Infections: 1 (<1%) n (%)
  TEAE incidence: Intestinal Mucosal Hypertrophy: 1 (<1%) n (%)
  TEAE incidence: Intestinal Spasm: 1 (<1%) n (%)
  TEAE incidence: Investigations: 176 (12%) n (%)
  TEAE incidence: Irritable Bowel Syndrome Aggravated: 13 (<1%) n (%)
  TEAE incidence: Lacunar Infarction: 1 (<1%) n (%)
  TEAE incidence: Liver Function Analyses: 36 (2%) n (%)
  TEAE incidence: Liver Function Tests NOS Abnormal: 1 (<1%) n (%)
  TEAE incidence: Loose Stools: 15 (1%) n (%)
  TEAE incidence: Lumbar Spinal Cord and Nerve Root Disorders: 1 (<1%) n (%)
  TEAE incidence: Lymphocyte Count Decreased: 1 (<1%) n (%)
  TEAE incidence: Lymphocyte Count Increased: 1 (<1%) n (%)
  TEAE incidence: Lymphocyte Percentage Decreased: 1 (<1%) n (%)
  TEAE incidence: Memory Impairment: 1 (<1%) n (%)
  TEAE incidence: Memory Loss (Excl Dementia): 2 (<1%) n (%)
  TEAE incidence: Meralgia Paraesthetica: 1 (<1%) n (%)
  TEAE incidence: Metabolism Tests NEC: 9 (<1%) n (%)
  TEAE incidence: Migraine Aggravated: 1 (<1%) n (%)
  TEAE incidence: Migraine Headaches: 7 (<1%) n (%)
  TEAE incidence: Migraine NOS: 6 (<1%) n (%)
  TEAE incidence: Mineral and Electrolyte Analyses: 4 (<1%) n (%)
  TEAE incidence: Monocyte Count Increased: 1 (<1%) n (%)
  TEAE incidence: Mononeuropathies: 6 (<1%) n (%)
  TEAE incidence: Mouth Cyst: 1 (<1%) n (%)
  TEAE incidence: Musculoskeletal and Connective Tissue Signs and Symptoms NEC: 66 (5%) n (%)
  TEAE incidence: Musculoskeletal and connective tissue disorders: 129 (9%) n (%)
  TEAE incidence: Narcolepsy and Hypersomnia: 1 (<1%) n (%)
  TEAE incidence: Nausea Aggravated: 1 (<1%) n (%)
  TEAE incidence: Nervous system disorders: 155 (11%) n (%)
  TEAE incidence: Neuralgia NOS: 4 (<1%) n (%)
  TEAE incidence: Neurological Signs and Symptoms NEC: 30 (2%) n (%)
  TEAE incidence: Neutrophil Count Decreased: 2 (<1%) n (%)
  TEAE incidence: Neutrophil Count Increased: 2 (<1%) n (%)
  TEAE incidence: Neutrophil Percentage Decreased: 2 (<1%) n (%)
  TEAE incidence: Nitrite Urine Present: 4 (<1%) n (%)
  TEAE incidence: Non-Mechanical Ileus: 1 (<1%) n (%)
  TEAE incidence: Non-Site Specific Gastrointestinal Haemorrhages: 1 (<1%) n (%)
  TEAE incidence: Oesophageal Spasm: 1 (<1%) n (%)
  TEAE incidence: Oesophagitis NOS: 4 (<1%) n (%)
  TEAE incidence: Oral Candidiasis: 2 (<1%) n (%)
  TEAE incidence: Oral Dryness and Saliva Altered: 3 (<1%) n (%)
  TEAE incidence: Oral Soft Tissue Signs and Symptoms: 1 (<1%) n (%)
  TEAE incidence: Otitis Externa NOS: 2 (<1%) n (%)
  TEAE incidence: Otitis Media NOS: 3 (<1%) n (%)
  TEAE incidence: Painful Defaecation: 1 (<1%) n (%)
  TEAE incidence: Pancreatitis Acute: 1 (<1%) n (%)
  TEAE incidence: Paraesthesia: 3 (<1%) n (%)
  TEAE incidence: Paraesthesias and Dysaesthesias: 5 (<1%) n (%)
  TEAE incidence: Periodontitis: 3 (<1%) n (%)
  TEAE incidence: Peripheral Neuropathies NEC: 1 (<1%) n (%)
  TEAE incidence: Peripheral Neuropathy NOS: 1 (<1%) n (%)
  TEAE incidence: Peritonsillar Abscess: 1 (<1%) n (%)
  TEAE incidence: Petit Mal Epilepsy: 1 (<1%) n (%)
  TEAE incidence: Pharyngitis Streptococcal: 1 (<1%) n (%)
  TEAE incidence: Pharyngotonsillitis: 1 (<1%) n (%)
  TEAE incidence: Physical Examination Procedures: 23 (2%) n (%)
  TEAE incidence: Pituitary Analyses Anterior: 2 (<1%) n (%)
  TEAE incidence: Platelet Analyses: 3 (<1%) n (%)
  TEAE incidence: Platelet Count Decreased: 2 (<1%) n (%)
  TEAE incidence: Platelet Count Increased: 1 (<1%) n (%)
  TEAE incidence: Pneumonia NOS: 6 (<1%) n (%)
  TEAE incidence: Post Herpetic Neuralgia: 1 (<1%) n (%)
  TEAE incidence: Proctalgia: 6 (<1%) n (%)
  TEAE incidence: Protein Urine Present: 7 (<1%) n (%)
  TEAE incidence: Pruritus Ani: 3 (<1%) n (%)
  TEAE incidence: Pseudofolliculitis Barbae: 1 (<1%) n (%)
  TEAE incidence: Pyelonephritis Acute NOS: 1 (<1%) n (%)
  TEAE incidence: Pyelonephritis NOS: 3 (<1%) n (%)
  TEAE incidence: Qrs Axis Abnormal: 1 (<1%) n (%)
  TEAE incidence: Radiculitis Lumbosacral: 1 (<1%) n (%)
  TEAE incidence: Rectal Haemorrhage: 20 (1%) n (%)
  TEAE incidence: Rectal Polyp: 1 (<1%) n (%)
  TEAE incidence: Rectal Prolapse: 1 (<1%) n (%)
  TEAE incidence: Rectal Tenesmus: 5 (<1%) n (%)
  TEAE incidence: Rectal Ulcer: 1 (<1%) n (%)
  TEAE incidence: Red Blood Cell Analyses: 2 (<1%) n (%)
  TEAE incidence: Red Blood Cell Count Decreased: 1 (<1%) n (%)
  TEAE incidence: Red Blood Cell Sedimentation Rate Increased: 1 (<1%) n (%)
  TEAE incidence: Red Blood Cells Urine Positive: 2 (<1%) n (%)
  TEAE incidence: Regurgitation of Food: 1 (<1%) n (%)
  TEAE incidence: Renal Function Analyses: 2 (<1%) n (%)
  TEAE incidence: Restless Leg Syndrome: 1 (<1%) n (%)
  TEAE incidence: Retching: 3 (<1%) n (%)
  TEAE incidence: Sciatica: 3 (<1%) n (%)
  TEAE incidence: Sensitivity of Teeth: 1 (<1%) n (%)
  TEAE incidence: Sensory Abnormalities NEC: 6 (<1%) n (%)
  TEAE incidence: Sepsis, Bacteraemia and Viraemia: 3 (<1%) n (%)
  TEAE incidence: Serum Ferritin Decreased: 1 (<1%) n (%)
  TEAE incidence: Sinus Headache: 1 (<1%) n (%)
  TEAE incidence: Sinusitis Acute NOS: 2 (<1%) n (%)
  TEAE incidence: Sinusitis Chronic NOS: 1 (<1%) n (%)
  TEAE incidence: Skeletal and Cardiac Muscle Analyses: 32 (2%) n (%)
  TEAE incidence: Skin and Subcutaneous Tissue Abscess NOS: 1 (<1%) n (%)
  TEAE incidence: Sleep Apnoea Syndrome: 1 (<1%) n (%)
  TEAE incidence: Sleep Apnoeas: 1 (<1%) n (%)
  TEAE incidence: Sleep Talking: 1 (<1%) n (%)
  TEAE incidence: Stomatitis: 1 (<1%) n (%)
  TEAE incidence: Stomatitis and Ulceration: 2 (<1%) n (%)
  TEAE incidence: Stools Watery: 2 (<1%) n (%)
  TEAE incidence: Syncope: 4 (<1%) n (%)
  TEAE incidence: Taeniasis: 1 (<1%) n (%)
  TEAE incidence: Tension Headaches: 2 (<1%) n (%)
  TEAE incidence: Tinea Pedis: 1 (<1%) n (%)
  TEAE incidence: Tissue Enzyme Analyses NEC: 7 (<1%) n (%)
  TEAE incidence: Tongue Disorders NEC: 1 (<1%) n (%)
  TEAE incidence: Tonsillitis Acute NOS: 2 (<1%) n (%)
  TEAE incidence: Tonsillitis NOS: 11 (<1%) n (%)
  TEAE incidence: Tooth Abscess: 2 (<1%) n (%)
  TEAE incidence: Tooth Caries NOS: 3 (<1%) n (%)
  TEAE incidence: Toothache: 11 (<1%) n (%)
  TEAE incidence: Torticollis: 1 (<1%) n (%)
  TEAE incidence: Tracheitis NOS: 5 (<1%) n (%)
  TEAE incidence: Tracheobronchitis: 1 (<1%) n (%)
